The results in this text go back to patent publication US8835428B2, “Diacylglycerol acyltransferase inhibitors” (Piramal Enterprises Limited, priority 2008, dated 2014).

This test has as its target T1, hDGAT1 (Homo sapiens, UniProt O75907).
T1 construct: host or cells: Sf9 insect cells (baculovirus); microsomal preparation
T1 sequence (O75907 1-488): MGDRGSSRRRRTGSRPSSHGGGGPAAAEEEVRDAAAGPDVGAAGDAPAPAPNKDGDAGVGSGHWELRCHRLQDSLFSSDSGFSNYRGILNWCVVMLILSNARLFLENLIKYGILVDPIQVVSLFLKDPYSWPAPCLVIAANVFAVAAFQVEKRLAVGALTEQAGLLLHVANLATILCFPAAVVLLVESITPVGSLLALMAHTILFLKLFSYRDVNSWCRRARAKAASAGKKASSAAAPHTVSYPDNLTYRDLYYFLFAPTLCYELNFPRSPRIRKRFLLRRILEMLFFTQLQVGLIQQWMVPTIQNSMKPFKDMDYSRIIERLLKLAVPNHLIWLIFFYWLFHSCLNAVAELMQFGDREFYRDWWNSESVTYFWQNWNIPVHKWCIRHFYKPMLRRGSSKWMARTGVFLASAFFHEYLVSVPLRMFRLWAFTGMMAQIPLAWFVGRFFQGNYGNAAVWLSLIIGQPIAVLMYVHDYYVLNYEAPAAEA
The test can be described thus: In-vitro DGAT1 assay (hDGAT1 microsomes from Sf9 cells, 14C oleoyl CoA, triglyceride formation). Type of test: biochemical. The method, then: In-vitro Protocol for DGAT1 Assay
Sf9 Culture and Treatment
Sf9 cells were grown in T25 flasks containing Graces's Insect media with 10% FBS with antibiotic (100 units/mL penicillin, 100 μg/mL streptomycin sulphate, 0.25 μg/mL Amptotericin B as Fungizone) grown in a 27° C. incubator:
hDGAT1ORF expression clone (RZPDo839C09146 in pDEST vector) was obtained from RZPD, Germany. hDGAT1 bacmid DNA was obtained by transformation of the hDGAT expression clone into DH10Bac E. coli competent cells. Approximately 1 μg of hDGAT1 bacmid DNA was infected into Sf9 cells with Cellfectin (Invitrogen) reagent. Following infection, Sf9 cells were incubated at 27° C. for 30 minutes. Five hours after infection, the media was replaced with growth media containing antibiotic (100 units/mL penicillin, 100 μg/mL streptomycin sulphate, 0.25 μg/mL Amptotericin B as Fungizone) and incubated at 27° C. for 72 hours. The supernatant containing the virus was centrifuged at 1500×g for 5 minutes, passed through 0.22 μm filter, and subsequently stored at 4° C. The virus was further amplified three more times by re-infection of Sf9 cells and the viral titer was determined by plaque assay.
Preparation of DGAT1 Microsomes from Sf9 Cells
Sf9 cells were seeded in spinner flasks on day 0 at a cell density of 1×10^6 and infected on day 1 with hDGAT1 baculovirus at a multiplicity of infection (MOI) of 5 and a cell density of 2×10^6. On day 3 (or 66-72 hours), cells were harvested and centrifuged at 2500×g for 10 minutes. Pellet was resuspended in lysis buffer (100 mM sucrose, 50 mM KCl, 40 mM KH2PO4, 30 mM EDTA, pH 7.2) and passed through 21-gauge needle approximately 10 times. The mixture was centrifuged at 12,000 rpm in a Sigma 12158-H rotor at 4° C. for 30 minutes. The supernatant was subjected to centrifugation at 35,000 rpm in a Beckman Ti-45 rotor at 4° C. for 1 hour. The resultant pellet containing the microsomes were resuspended overnight in 1 mL of lysis buffer and total protein concentration was estimated using Bradford Reagent. Microsomes were aliquoted and stored at −20° C.
Measurement of DGAT1 Activity
Frozen aliquots of hDGAT1 containing microsomes were thawed (5-10 mg/mL total protein) on ice and diluted to a working stock of 1 mg/mL with DGAT Assay Buffer (DAB). The DGAT reaction assay was performed by following the procedure described in U.S. Pat. No. 6,607,893 with some modifications that are described below.
Preparation of DGAT1 substrate mixture: 1 mL stock solution of DGAT1 substrate mixture contains (i) 5.6 μL of ^14C oleoyl CoA (16.8 nCi) and 35 μL 1,2-dioleoyl-sn-glycerol (409.5 μM) or (ii) 5.6 μL of ^14C oleoyl CoA (16.8 nCi) and 105 μL 1,2-dioleoyl-sn-glycerol (1228.5 μM) or (iii) 5.6 μL of ^14C oleoyl CoA (16.8 nCi) and 140 μL 1,2-dioleoyl-sn-glycerol (1638 μM).
1,2-sn-dioleoylglycerol substrate concentration in the 1 mL stock solution of DGAT1 substrate mixture was varied depending on the microsome concentration used in the assay reaction. 1,2-dioleoyl-sn-glycerol stock (19.5 mM) was prepared by dissolving 25 mg of 1,2-dioleoyl-sn-glycerol (Sigma, US) in 2060 μL of acetone. The assay was performed in duplicates in a reaction volume of 100 μL. The reaction volume consisted of: • (i) 27.5 μL of DGAT assay buffer (0.25M Sucrose, 1 mM EDTA (pH 8.0), 150 mM Tris-HCl, pH 7.4, 1.25 mg/mL, fatty acid free BSA), • (ii) 10 μL of compound, of present invention or standard (dissolved in DMSO and diluted to 10× with DAB and screened at 10 μM, 5 μM and 1 μM), • (iii) 60 μL DGAT1 substrate mixture taken from a 1 mL stock (16.8 nCi of ^14C oleoyl CoA and 409.5 μM or 1228.5 μM or 1638 μM of 1,2-dioleyl-sn-glycerol), • (iv) 2.5-10 μL of 1 mg/mL of microsomes (the amount of assay buffer was varied depending upon the concentration of microsome to make up the volume to 100 μL). Procedure:
The reaction was started by the addition of 2.5-10 μL of 1 mg/mL of microsomes (iv) to a mixture of (i), (ii) and (iii), vortexed and incubated at 37° C. for 10 minutes. […]

Consider `CC(C)C(NC(=O)c1cc(-c2ccc(NC(=O)Nc3ccccc3F)cc2)no1)C(=O)O` (centres unmarked) [Example 106, 2-(3-(4-(3-(2-Fluorophenyl)ureido)phenyl)isoxazole-5-carboxamido)-3-methylbutanoic acid], for which the inhibition at 10 µM lay within 75 to 100%. Regarding `O=C(O)CCCNC(=O)c1cc(-c2ccc(NC(=O)Nc3ccccc3F)cc2)no1` [Example 254, 4-(3-(4-(3-(2-Fluorophenyl)ureido)phenyl)isoxazole-5-carboxamido) butanoic acid], the inhibition at 5 µM lay in the range of 50 to 75%. `COC(=O)[C@@H](NC(=O)c1onc(-c2ccc(NC(=O)Nc3ccc(F)cc3)cc2)c1-c1ccccc1)C(C)C` [Example 92, (S)-2-[(3-{4-[3-(4-Fluoro-phenyl)-ureido]-phenyl}-4-phenyl-isoxazole-5-carbonyl)-amino]-3-methyl-butyric acid methyl ester] registered an inhibition at 10 µM of 0 to 50%. With `CC(C)[C@H](NC(=O)c1cc(-c2ccc(NC(=O)Nc3cccc(Cl)c3)cc2)no1)C(=O)O` [Example 209, (S)-2-(3-(4-(3-(3-chlorophenyl)ureido)phenyl)isoxazole-5-carboxamido)-3-methylbutanoic acid], the inhibition at 1 µM (At 1 μM) was in the range of 75 to 100%.

As for `Cc1cc(C)cc(NC(=O)Nc2ccc(-c3cc(C(=O)N[C@H](C(=O)O)C(C)C)on3)cc2)c1` [Example 205, (S)-2-(3-(4-(3-(3,5-dimethylphenyl)ureido)phenyl)isoxazole-5-carboxamido)-3-methylbutanoic acid], where the note is “At 1 μM”, the inhibition at 1 µM fell in the range of 50 to 75%. For the setting “At 1 μM”, `CC(C)[C@H](NC(=O)c1cc(-c2ccc(NC(=O)Nc3ccc(Cl)cc3)cc2)no1)C(=O)O` [Example 179, (S)-2-(3-(4-(3-(4-Chlorophenyl)ureido)phenyl)isoxazole-5-carboxamido)-3-methylbutanoic acid] had an inhibition at 1 µM of 75 to 100%. As for `COC(=O)C(C)(C)NC(=O)c1cc(-c2ccc(NC(=O)Nc3ccccc3)cc2)no1` [Example 121, Methyl 2-methyl-2-(3-(4-(3-phenylureido)phenyl)isoxazole-5-carboxamido)propanoate], the inhibition at 10 µM was 50 to 75%. The compound `CC(C)[C@H](NC(=O)c1cc(-c2ccc(NC(=O)Nc3cccc(Cl)c3F)cc2)no1)C(=O)O` [Example 183, (S)-2-(3-(4-(3-(3-chloro-2-fluorophenyl)ureido)phenyl)isoxazole-5-carboxamido)-3-methylbutanoic acid] displayed an inhibition at 1 µM (At 1 μM) of 75 to 100%. In turn, `Cc1ccc(Cl)cc1NC(=O)Nc1ccc(-c2cc(C(=O)N[C@H](C(=O)O)C(C)C)on2)cc1` [Example 195, (S)-2-(3-(4-(3-(5-chloro-2-methylphenyl)ureido)phenyl)isoxazole-5-carboxamido)-3-methylbutanoic acid] showed an inhibition at 1 µM (At 1 μM) of 75 to 100%. `Cc1cccc(Cl)c1NC(=O)Nc1ccc(-c2cc(C(=O)N[C@H](C(=O)O)C(C)C)on2)cc1` [Example 175, (S)-2-(3-(4-(3-(2-Chloro-6-methylphenyl)ureido)phenyl)isoxazole-5-carboxamido)-3-methylbutanoic acid]: the inhibition at 1 µM (At 1 μM) fell in the range of 0 to 50%. `COC(=O)C(NC(=O)c1cc(-c2ccc(NC(=O)Nc3ccc(F)cc3C)cc2)no1)C(C)C` (centres unmarked) [Example 284, Methyl 2-(3-(4-(3-(4-fluoro-2-methylphenyl)ureido)phenyl)isoxazole-5-carboxamido)-3-methylbutanoate] displayed an inhibition at 5 µM of 50 to 75%. Turning to `COC(=O)[C@@H](NC(=O)c1cc(-c2ccc(Nc3nc4ccc(F)cc4s3)cc2)no1)C(C)C` [Example 5, (S)-2-({3-[4-(6-Fluoro-benzothiazol-2-ylamino)-phenyl]-isoxazole-5-carbonyl}-amino)-3-methyl-butyric acid methyl ester], the inhibition at 10 µM lay in the range of 50 to 75%. `COC[C@H](NC(=S)c1cc(-c2cccc(Nc3nc4ccc(F)cc4s3)c2)no1)C(=O)OC` [Example 30, (S)-2-({3-[3-(6-Fluoro-benzothiazol-2-ylamino)-phenyl]-isoxazole-5-carbothioyl}-amino)-3-methoxy-propionic acid methyl ester] had an inhibition at 10 µM of 0 to 50%. On to `C=C(NC(=O)c1cc(-c2ccc(NC(=O)Nc3ccc(C)cc3)cc2)no1)C(=O)OC` [Example 303, Methyl 2-(3-(4-(3-p-tolylureido)phenyl)isoxazole-5-carboxamido) acrylate], for which the “% inhibition of hDGAT1” value (At 1 μM) is recorded as “+ (>0% Inhibition ≦50)”. As to `COC(=O)C(NC(=O)c1cc(-c2ccc(NC(=O)Nc3ccc(C(F)(F)F)cc3)cc2)no1)C(C)C` (centres unmarked) [Example 275, Methyl 3-methyl-2-(3-(4-(3-(4-(trifluoromethyl)phenyl)ureido)phenyl)isoxazole-5-carboxamido)butanoate], the inhibition at 5 µM was 0 to 50%. `CCC(C)[C@H](NC(=O)c1cc(-c2ccc(NC(=O)Nc3ccccc3)cc2)no1)C(=O)O` (stereo partly drawn) [Example 79, (S)-3-Methyl-2-({3-[4-(3-phenyl-ureido)-phenyl]-isoxazole-5-carbonyl}-amino)-pentanoic acid] had an inhibition at 10 µM of 75 to 100%.

Turning to `CC(C)[C@H](NC(=O)c1cc(-c2ccc(NC(=O)Nc3ccccc3F)cc2F)no1)C(=O)O` [Example 144, (S)-2-(3-(2-Fluoro-4-(3-(2-fluorophenyl)ureido)phenyl)isoxazole-5-carboxamido)-3-methylbutanoic acid], the inhibition at 5 µM lay in the range of 75 to 100%. For the compound `O=C(O)[C@@H](NC(=NO)c1cc(-c2ccc(Nc3nc4ccc(F)cc4s3)cc2)no1)c1ccccc1` [Example 57, (S)-({3-[4-(6-Fluoro-benzothiazol-2-ylamino)-phenyl]-N-hydroxy-isoxazole-5-carboximidoyl}-amino)-phenyl-acetic acid], the inhibition at 10 µM lay within 0 to 50%. The compound `COC(=O)[C@H](NC(=S)c1cc(-c2ccc(NC(=O)Nc3ccccc3F)cc2)no1)C(C)C` [Example 222, (R)-Methyl 2-(3-(4-(3-(2-fluorophenyl)ureido)phenyl)isoxazole-5-carbothioamido)-3-methylbutanoate] showed an inhibition at 5 µM of 50 to 75%. For the compound `CC(C)[C@H](NC(=O)c1onc(-c2ccc(NC(=O)Nc3ccc(F)cc3)cc2)c1-c1ccccc1)C(=O)O` [Example 93, (S)-2-[(3-{4-[3-(4-Fluoro-phenyl)-ureido]-phenyl}-4-phenyl-isoxazole-5-carbonyl)-amino]-3-methyl-butyric acid], the inhibition at 10 µM lay within 0 to 50%.

In general, inhibition refers to the percentage by which the read-out fell short of the control. Higher therefore signals a response far below the control.
